Literature values in patent US20250231185A1, “Coronavirus T Cell Epitopes, Megapools and Uses Thereof” (La Jolla Institute for Immunology, priority 2021, published 2025).

Tested on: CD8+ T cells
Conditions: T cell subset (CD4 or CD8) recognizing the SARS-CoV-2-derived epitope; cited from earlier work
For 593 (YLFDESGEF) [compound 593], the Restriction is given as “CD8”. For 595 (FEPSTQYEY) [compound 595], the Restriction is given as “CD8”. For 596 (DDYQGKPLEF) [compound 596], the Restriction is given as “CD8”. For 598 (LEFGATSAAL) [compound 598], the Restriction is listed as “CD8”. For 599 (VEVQPQLEM) [compound 599], the Restriction is listed as “CD8”. In the case of 600 (LEMELTPVV) [compound 600], the Restriction is given as “CD8”. For 601 (MELTPVVQTI) [compound 601], the Restriction is listed as “CD8”. For 602 (TPVVQTIEV) [compound 602], the Restriction is given as “CD8”. For 603 (TIEVNSFSGY) [compound 603], the Restriction is given as “CD8”. For 604 (IEVNSFSGY) [compound 604], the Restriction is listed as “CD8”. In the case of 605 (NSFSGYLKL) [compound 605], the Restriction is listed as “CD8”. For 606 (YLKLTDNVY) [compound 606], the Restriction is given as “CD8”. In the case of 607 (YLKLTDNVYIK) [compound 607], the Restriction is given as “CD8”. In the case of 608 (EAKKVKPTV) [compound 608], the Restriction is listed as “CD8”. For 609 (VVVNAANVY) [compound 609], the Restriction is listed as “CD8”. In the case of 610 (YIATNGPLK) [compound 610], the Restriction is given as “CD8”. In the case of 611 (YENFNQHEV) [compound 611], the Restriction is given as “CD8”. For 612 (LLSAGIFGA) [compound 612], the Restriction is listed as “CD8”. In the case of 613 (GADPIHSLR) [compound 613], the Restriction is listed as “CD8”. In the case of 614 (RTNVYLAVF) [compound 614], the Restriction is given as “CD8”. In the case of 615 (AVFDKNLYDK) [compound 615], the Restriction is listed as “CD8”. For 616 (NLYDKLVSSFL) [compound 616], the Restriction is listed as “CD8”. For 617 (LYDKLVSSF) [compound 617], the Restriction is given as “CD8”. For 618 (KLVSSFLEM) [compound 618], the Restriction is listed as “CD8”. In the case of 619 (KIAEIPKEEV) [compound 619], the Restriction is listed as “CD8”. In the case of 620 (EVKPFITESK) [compound 620], the Restriction is listed as “CD8”. For 621 (ESKPSVEQR) [compound 621], the Restriction is listed as “CD8”. In the case of 622 (FLTENLLLYI) [compound 622], the Restriction is listed as “CD8”. For 623 (LVSDIDITF) [compound 623], the Restriction is listed as “CD8”. In the case of 624 (APYIVGDVV) [compound 624], the Restriction is given as “CD8”. In the case of 625 (LTAVVIPTK) [compound 625], the Restriction is given as “CD8”. In the case of 626 (ALRKVPTDNY) [compound 626], the Restriction is listed as “CD8”. For 630 (TTYPGQGLNGY) [compound 630], the Restriction is listed as “CD8”. For 631 (KQEILGTVSW) [compound 631], the Restriction is given as “CD8”. In the case of 633 (MLAHAEETR) [compound 633], the Restriction is given as “CD8”. For 634 (AHAEETRKL) [compound 634], the Restriction is given as “CD8”. For 635 (KLMPVCVET) [compound 635], the Restriction is given as “CD8”. For 636 (AIVSTIQRKYK) [compound 636], the Restriction is given as “CD8”. For 637 (AIVSTIQRK) [compound 637], the Restriction is given as “CD8”. In the case of 638 (VVDYGARFY) [compound 638], the Restriction is listed as “CD8”. For 639 (SLINTLNDL) [compound 639], the Restriction is given as “CD8”. For 640 (VSSPDAVTAY) [compound 640], the Restriction is given as “CD8”. In the case of 641 (TISLAGSYK) [compound 641], the Restriction is given as “CD8”. In the case of 642 (ISLAGSYKDW) [compound 642], the Restriction is given as “CD8”. For 643 (SVYYTSNPTTF) [compound 643], the Restriction is listed as “CD8”. For 644 (YYTSNPTTF) [compound 644], the Restriction is listed as “CD8”. In the case of 645 (YYTSNPTTFHL) [compound 645], the Restriction is given as “CD8”. In the case of 646 (TSNPTTFHL) [compound 646], the Restriction is listed as “CD8”. In the case of 647 (HLDGEVITF) [compound 647], the Restriction is given as “CD8”. For 648 (GEVITFDNL) [compound 648], the Restriction is given as “CD8”. In the case of 649 (ITFDNLKTL) [compound 649], the Restriction is given as “CD8”. For 650 (NLKTLLSL) [compound 650], the Restriction is given as “CD8”. For 651 (RTIKVFTTV) [compound 651], the Restriction is listed as “CD8”. In the case of 652 (NINLHTQVV) [compound 652], the Restriction is given as “CD8”.
